We go through 1 compound from patent publication US6562866B1 (priority 1998, dated 2003).

Holding throughout (assay type): in vivo, New Zealand White rabbits
Experiment [1] in a line: Chemical analysis of blood of rabbits fed 1% cholesterol diets. The conditions noted are these: 1% cholesterol diet plus 0.1% rutin or quercetin or 1 mg/kg Lovastatin, 6 weeks. The method, then: 24 three-month-old New Zealand White rabbits (Yeonam Horticulture and Animal Husbandry College, Korea), each weighing about 2.5 to 2.6 kg, were raised under a condition of temperature 20±2° C., relative humidity 55±5%, and photoperiod 12L/12D. […] RC4 diet comprises 7.6% moisture, 22.8% crude protein, 2.8% crude fat, 8.8% crude ash, 14.4% crude cellulose and 43.6% soluble nitrogen-free substances. Rutin and quercetin were purchased from Sigma Co. (St. Louis, Mo.).
The rabbits were fed for 6 weeks while being allowed free access to the diets and water.
After six weeks, the rabbits were anesthetized with an intramuscular injection of ketamine (50 mg/kg) in the femoral region and sacrificed. A blood sample was taken from the heart of each rabbit, allowed to stand for 2 hours and centrifuged at 3,000 rpm for 15 minutes and the supernatant serum was separated and stored in a freezer before use.
The chemical analysis of blood was carried out by employing a blood chemical analyzer (CIBA Corning 550 Express, USA) to determine the changes in GOT, GPT, γ-GTP, total cholesterol and triglyceride levels.

The subject of experiment [2] is main artery fatty streak / arterial endothelium. Put plainly: Analysis for fatty streak in the main artery of cholesterol-fed rabbits. The method, then:
(§1) 24 three-month-old New Zealand White rabbits (Yeonam Horticulture and Animal Husbandry College, Korea), each weighing about 2.5 to 2.6 kg, were raised under a condition of temperature 20±2° C., relative humidity 55±5%, and photoperiod 12L/12D. […] RC4 diet comprises 7.6% moisture, 22.8% crude protein, 2.8% crude fat, 8.8% crude ash, 14.4% crude cellulose and 43.6% soluble nitrogen-free substances.
The chest of each of the rabbits sacrificed in Step 2 was incised. The downward portion of the main artery from the site 1 cm above the aortic valve was cut out in a length of about 5 cm and the fat surrounding the main artery was removed. The main artery was incised in the middle along the longitudinal axis and pinned to a dish. The moist artery was photographed and, then, the staining of fatty streaks was carried out in accordance with the method of Esper, E., et al. (J. Lab. Clin. Med., 121, 103-110 (1993)) as follows.
A part of the incised main artery was washed three times with anhydrous propylene glycol for 2 min and stained for 30 min. with a saturated solution of Oil Red O (ORO, Sigma Co.) dissolved in propylene glycol. Thereafter, the artery was washed twice with 85% propylene glycol for 3 min. to remove remaining staining solution and, then washed with physiological saline. The artery was photographed and the photograph was traced. The area of stained region (fatty streak region) was determined with an image analyzer (LEICA, Q-600, Germany) and its proportion (%) to the total arterial area was calculated.

Experiment [3] relates to liver cells around the central vein. Kind of experiment: Microscopic grading of abnormal fat-containing cells in the liver of cholesterol-fed rabbits. The conditions noted are these: 1% cholesterol plus 1 mg/kg Lovastatin or 0.1% rutin. The method, then:
as §1

Each structure is given as a SMILES string.

As for `CC[C@H](C)C(=O)O[C@H]1C[C@@H](C)C=C2C=C[C@H](C)[C@H](CC[C@@H]3C[C@@H](O)CC(=O)O3)[C@H]21` [Lovastatin ®, Lovastatin, reference compound], in experiment [1], the “TG (triglyceride)” value was 65.6 mg/dL and the “Total-C (total cholesterol)” value came to 1209.5 mg/dL. Further, the “A: Proportion (%) of fatty streak region to the total arterial area” value in experiment [2] (1% cholesterol diet plus 0.1% rutin or quercetin or 1 mg/kg Lovastatin, 6 weeks, Oil Red O staining) was 5%. Further, the “layer of macrophage-lipid complex on the arterial endothelium (FIGS. 1B, 1C)” value in experiment [2] (1% cholesterol plus 1 mg/kg Lovastatin or 0.1% rutin) is “no or very thin layers”. In experiment [3], the “microscopic features of the liver (FIGS. 2B, 2C)” value is given as “many cells containing excessive fat”.
